The values that follow come from US6107316A, “Method for treating protozoal infections” (priority 1998, dated 2000).

For orientation: EC50 means the concentration needed to bring the measured effect to its halfway point. Usually % Inhibition stands for how much of the control response was suppressed. A low value points to a weak effect. What is called inhibition is the drop in the measured response relative to a control, in per cent.

Data set [1] deals with Entamoeba histolytica. Briefly: in vitro growth inhibitory activity against E. histolytica. The data set is classed as cell-based. An excerpt: 35, pp. 2198-2202 (1991). Metronidazole was included as a standard in the test for comparative purposes.
The test system of data set [2] is Giardia lamblia. The data set can be described thus: in vitro growth inhibitory activity against Giardia lamblia. The data set is classed as cell-based. To be noted: Giardia duodenalis; concentration required to inhibit growth by 50%. How it is done:
35, pp. 2198-2202 (1991). EC50 values for test compounds, expressed in parts per million (ppm), were calculated from dose response curves and are presented in Table 4. As used herein, the terminology "EC50" means the concentration of test compound required to inhibit growth by 50% are compared to a control lacking the test compound. Metronidazole was included as a standard in the tests for comparative purposes.

Data set [3] deals with Leishmania major. Briefly: in vitro growth inhibitory activity against L. major promastigotes. The data set is classed as cell-based. The source says: 35, pp. 2198-2202 (1991).
For data set [4], the system named is Encephalitozoon (Septata) intestinalis. Briefly: growth inhibitory activity against E. intestinalis grown on Vero cells (spore count). The data set is classed as cell-based. The following applies: 336 h, 0.1 μg/ml, spore number after 2 weeks, read-out: Growth (% of control). How it is done: Compounds 2, 10 and 15 were tested for i,7 vitro growth inhibitory activity against E. intestinalis, grown on African green monkey kidney cells (Vero cells). Vero cells were grown in 25-cm^2 culture flasks at 37° C. in a humidified 5% carbon dioxide incubator. Cultures were maintained in minimal essential medium (Gibco BRL, Gaithersburg, Md., U.S.A.), supplemented with L-glutamine, Earle's salts, 5% heat-inactivated foetal calf serum (Hyclone Labs, Inc., U.S.A.), fungizone (2 μg/ml, Gibco BRL) and gentamicin (50 μg/ml, Gibco BRL). E. intestinalis spores were collected from the supernatant of an infected Vero cell culture and were used to infect normal cells to produce a fresh spore preparation for growth inhibition tests.
Growth inhibition tests were performed in 24-well culture plates. One ml of Vero cells (5×10^4 cells per ml) was placed in each well and the cells incubated for 12-15 hours at 37° C. The supernatant medium was then removed and replaced with 1 ml of medium containing 1.5-2.0×10^4 E. intestinalis spores per ml along with 1 μl of test compound dissolved in dimethylsulfoxide (DMSO) or DMSO alone for the control treatments without test compound. The plates were incubated at 37° C. and the medium was changed every 72 h along with fresh test compound in DMSO or DMSO alone (controls). After 2 weeks the supernatant was transferred from each well to a microcentiifuge tube, then concentrated by centrifugation with resuspension of the resulting E. intestinalis spore pellet in 300-500 μl fresh medium. The spore number in each sample was then determined by counting in a hemocytometer. The results in Table 11 show the effects of the test compounds on the number of spores and are expressed as a percentage of the spore number in the control treatment without test compound.

Data set [5] concerns Tetrahymena pyriformis. The data set can be described thus: in vitro growth inhibitory activity against the ciliate Tetrahymena pyriformis. The data set is classed as cell-based, Tetrahymena pyriformis (ATCC strain 30005). To be noted: 24 hours, 25° C., read-out: EC50 Tetrahymena pyriformis. How it is done:
Compounds were evaluated for in vitro growth inhibitory activity against the ciliate Tetrahymena pyriformis, which was used as an indicator organism for the Apicomplexia since by several criteria the ciliates and Apicomplexa are closely related (Edlind T. D. et al., Mol. Phylogenet. Evol. vol. 5, pp. 359-367, 1996). T. pyriformis (ATCC strain 30005) was grown in 1 ml ATCC medium 357 at 25° C. in 4 ml polyallomer culture tubes without shaking. Compounds were dissolved in dimethylsufoxide (DMSO) and added to the cultures (containing 3,000 cells/ml) such that the final DMSO concentration was 0.1-0.3%. […] Parasitol. vol. 84, pp. 355-370, 1996) and Cryptosporidium parvum (Arrowood et al., FEMS Microbial. Lett., vol. 136, pp. 245-249, 1996) were tested for comparison.

In data set [6] the test system is Toxoplasma gondii. Briefly: growth inhibition of T. gondii in HFF host cells ([3H]-uracil incorporation). To be noted: HFF host cells. The data set is classed as cell-based. How it is done: (§1) Compounds were tested for it vitro growth inhibitory activity against Toxoplasma gondii replication in L929 (L929-ATCC CCL 1, mouse connective tissue) or HFF (human foreskin fibroblast) host cells using the [^3 H]-uracil incorporation technique as follows. Host cells were grown in 96-well flat-bottom microtiter plates at 37° C in a 5% carbon dioxide environment in modified Eagle's medium containing penicillin, streptomycin and 10% fetal equine serum. Wells containing a homogeneous confluent monolayer of host cells were infected with T. gondii tachyzoites at a ratio of 3 parasites per cell (approximately 6×10^4 tachyzoites per well containing 100 μl of medium). […] Two hours post infection, the cultures were washed to remove free parasites and the various dilutions of test compound were added. Cells were subsequently collected at 24, 48 and 72 hours. Four hours prior to each harvesting 50 Al of [^3 H]-uracil (1 μCi) was added. Cells were collected using a cell harvester and incorporated radioactivity was measured using a scintillation counter. […]

Data set [7] can be described thus: cytotoxicity towards L929 host cells (Cell Titer 96). To be noted: mouse, % Inhibition of host cell growth (values in parenthesis). How it is done:
(§2) Cytotoxicity of the test compounds towards host cells was determined using the Cell Titer 96™ it (Promega Corporation, Madison, Wis.) as follows. Cells were seeded at a concentration of 5×10^3 cells per well containing 100 μl of medium in 96-well flat-bottom microtiter plates and incubated at 37° C. in a 5% carbon dioxide environment for 4 hours. Dilutions of the test compounds prepared as described above were then added, and incubation continued for 24, 48 or 72 hours. Four hours before each of these time points the growth medium containing test compound was replaced with 100 μl of fresh medium followed by addition of 16 μl of the kit dye solution. After incubation at 37° C. for another 4 hours, 100 μl of the kit solubilization/stop solution was added to each well, the contents of the wells were mixed and the plates kept 1 hour at room temperature. The plates were then read spectrophotometrically in a plate reader at a wavelength of 570 nm. […] Atovaquone was included in the test as a standard.

Data set [8] relates to Toxoplasma gondii. Briefly: growth inhibition of T. gondii in L929 host cells ([3H]-uracil incorporation). The data set is classed as cell-based. The following applies: L929 host cells; for inhibition at 5 µg/mL: Toxoplasma gondii, read-out: % Inhibition. How it is done: as §1
Data set [9] relates to Cryptosporidium parvum. The data set can be described thus: growth inhibitory activity against C. parvum in host MDBKF5D2 cells (immunofluorescence). To be noted: for % Inhibition: 48 hours. The data set is classed as cell-based. How it is done: (§3) Compounds were tested for in vitro growth inhibitory activity against C. parvum grown in host MDBKF5D2 cells and for toxicity towards the host cells as follows. […] To test for toxicity towards the host cells, the media containing test compound (200 μl) were introduced into two wells of a 96 well microtiter plate containing confluent MDBKF5D2 cell monolayers and two wells without monolayers, and incubated at 37° C. in an 8% carbon dioxide environment. After 48 hours, the tetrazolium salt MTS (Owen's solution) and phenazine methosulfate were added to each well at concentrations of 333 μg/ml and 25 μM, respectively. The plate was returned to the incubator in the dark to develop for 2 hours, then 100 μl of each supernatant was transferred to a new microtiter plate and read spectrophotometrically in a plate reader at a wavelength of 490 nm. Percent toxicity was calculated by subtracting the mean optical density (OD) of the drug supernatants from the OD of medium control supernatants (no drug), dividing by the OD of the medium control, and multiplying by 100. To test for growth inhibitory activity against C. parvum, 3×10^4 oocysts per well were incubated in mentioned concentrations of each drug at 37° C. (8% CO2) on confluent MDBKF5D2 cell monolayers in 96 well microtiter plates. After 48 hours, the level of infection in each well was determined by means of an immunofluorescence assay. Percent inhibition of growth was calculated by subtracting the mean parasite count in the wells containing test compound from the mean parasite count in the medium control wells (no test compound), dividing by the mean parasite count in the medium control wells, and multiplying by 100. Paromomycin was included in the test as a standard.

A short description of data set [10]: cytotoxicity towards HFF host cells (Cell Titer 96). The following applies: human, % Inhibition of host cell growth (values in parenthesis). How it is done: as §2
Data set [11] has as its system MDBKF5D2 cells. The data set can be described thus: toxicity towards MDBKF5D2 host cells (MTS). To be noted: 48 hours, 2880 min. How it is done:
as §3

Data set [12] in a line: toxicity towards MDBKF5D2 host cells (MTS). The following applies: bovine, mdbkf5d2 cells, Cytotoxicity (percent toxicity), 100 μM. How it is done:
as §3

≈ marks a conversion by molar mass, not a printed value. A value given as a limit tells only on which side of the number the result lay.

With `CCC(C)(NC(=O)c1cc(Cl)cc(C=NOC)c1)C(=O)CCl` (centres unmarked) [Compound 2], the EC50 in data set [1] was 12 µg/mL (≈ 34.8 µM); in data set [2], 0.03 µg/mL (≈ 0.0869 µM); in data set [3], 0.03 µg/mL (≈ 0.0869 µM); in [5] it was < 0.01 µg/mL. The activity at 0.1 µg/mL in data set [4] came out at 29%.
Take `CCC(C)(NC(=O)c1cc(Cl)cc(Cl)c1)C(=O)CCl` (centres unmarked) [Compound 5]: the “% Inhibition” value in data set [6] (0.5 μg/ml, 48 hours) is 97.6%; in data set [6] (0.5 μg/ml, 72 hours), 80.2%; in [8] (0.5 μg/ml, 24 hours), 39.2%; in data set [8] (0.5 μg/ml, 48 hours), 64.7%; in data set [8] (0.5 μg/ml, 72 hours), 44.1%; in data set [8] (5.0 μg/ml, 24 hours), 3.3%. In addition, in data set [9] (10 μM), the “% Inhibition” value is 34.1%. Moreover, the inhibition at 0.5 µg/mL in data set [6] (Toxoplasma gondii, 24 h, 0.5 μg/ml, 24 hours, read-out: % Inhibition) was determined as 55.9%. The inhibition at 5 µg/mL was determined as 89% in data set [6] (Toxoplasma gondii, 24 h, 5.0 μg/ml, 24 hours, read-out: % Inhibition); 100% in [6] (Toxoplasma gondii, 48 h, 5.0 μg/ml, 48 hours, read-out: % Inhibition); 99.6% in data set [6] (Toxoplasma gondii, 72 h, 5.0 μg/ml, 72 hours, read-out: % Inhibition); 69.2% in [8] (L929, 48 h, 5.0 μg/ml, 48 hours); 84% in data set [8] (L929, 72 h, 5.0 μg/ml, 72 hours). Moreover, the inhibition at 48 h in data set [7] (L929, 0.5 μg/ml) stood at 0%; in data set [7] (L929, 5.0 μg/ml) it was 66.8%; in [10] (0.5 μg/ml, 48 hours) it was 5.3%. For the same molecule, the inhibition at 72 h in data set [7] (L929, 0.5 μg/ml) amounted to 0%; in [7] (L929, 5.0 μg/ml) it was 91.2%; in data set [10] (5.0 μg/ml, 72 hours) it was 39.6%. Also, the EC50 was found to be 0.02 µg/mL (≈ 0.062 µM) in data set [2], 0.06 µg/mL (≈ 0.186 µM) in data set [3] and 0.003 µg/mL (≈ 0.0093 µM) in data set [5]. The molecule further gave an inhibition at 0.1 µM in data set [9] (Cryptosporidium parvum, 48 h, 0.1 μM) of 10%. Besides, at 1 µM the inhibition in [9] (Cryptosporidium parvum, 48 h, 1.0 μM) was 17.4%. In addition, in data set [10] (5.0 μg/ml, 24 hours), the inhibition at 24 h worked out at 8%. Further, the “Cytotoxicity (percent toxicity)” value is reported as 18.8% in data set [11] (0.1 μM), 6.7% in data set [11] (1.0 μM) and 31.4% in [11] (10 μM). Moreover, the cytotoxicity at 48 h, 100 µM in [12] is 72.6%.
`Cc1ncc([N+](=O)[O-])n1CCO` [Metronidazole, reference compound]: the concentration giving a half-maximal response (EC50) in data set [1] came out at 0.5 µg/mL (≈ 2.92 µM); in data set [2] it was 0.7 µg/mL (≈ 4.09 µM).
`CCC(C)(NC(=O)c1cc(Cl)cc(Cl)c1)C(=O)CCl` (centres unmarked) [Compound 13]: the “% Inhibition” value in data set [6] (0.5 μg/ml, 24 hours) came out at 72.3%; in data set [6] (0.5 μg/ml, 48 hours), 28.1%; in data set [6] (0.5 μg/ml, 72 hours), 0%; in data set [6] (5.0 μg/ml, 24 hours) it was 93.0%; in [6] (5.0 μg/ml, 48 hours), 98.2%; in data set [6] (5.0 μg/ml, 72 hours) it was 97.8%. Moreover, the “% Inhibition” value in data set [8] (0.5 μg/ml, 24 hours) came out at 11.6%; in data set [8] (0.5 μg/ml, 48 hours) it was 33.2%; in data set [8] (0.5 μg/ml, 72 hours), 0%; in [8] (5.0 μg/ml, 24 hours), 11.4%; in data set [8] (5.0 μg/ml, 48 hours), 83.9%; in data set [8] (5.0 μg/ml, 72 hours), 88.5%. Further, the “% Inhibition” value was 9.9% in [9] (0.1 μM), 12.5% in data set [9] (1.0 μM) and 15.7% in data set [9] (10 μM). Also, in data set [9] (Cryptosporidium parvum, 48 h, 100 μM), testing at 100 µM gave an inhibition of 87.5%. The “Cytotoxicity (percent toxicity)” value is reported as 0% in [11] (0.1 μM), 2.4% in data set [11] (1.0 μM), 4.3% in data set [11] (10 μM) and 54.3% in data set [11] (100 μM).
Turning to `CCC(C)(NC(=O)c1cc(C)cc(Br)c1)C(=O)CCl` (centres unmarked) [Compound 3], the EC50 in data set [1] was 16 µg/mL (≈ 46.2 µM); in data set [2], 0.06 µg/mL (≈ 0.173 µM); in data set [3], 0.2 µg/mL (≈ 0.577 µM); in [5], < 0.01 µg/mL.
`CCC(C)(NC(=O)c1cncc(Br)c1)C(=O)CCl` (centres unmarked) [Compound 15]: the 50% effective concentration (EC50) in data set [1] is 20 µg/mL (≈ 59.9 µM); in data set [2] it was 0.2 µg/mL (≈ 0.599 µM); in data set [3], 0.7 µg/mL (≈ 2.1 µM); in data set [5], < 0.01 µg/mL. The activity at 0.1 µg/mL in [4] was 13%.
